In publication PMC5321434, “Dihydrobenz[e][1,4]oxazepin-2(3H)-ones, a new anthelmintic chemotype immobilising whipworm and reducing infectivity in vivo” (PLoS Neglected Tropical Diseases, 2017):

What was measured:
[1] = tested on: CMT-93 murine rectal epithelial cells; experiment: Neutral red cytotoxicity assay; type: cell-based, mouse; details: Mus musculus, CMT93; CMT-93 cells, 72 hours, maximum tested concentration 100μM, n = 8, 95% confidence interval in parentheses
Method: CMT-93 murine rectal epithelial cells were maintained in Dulbecco's Modified Eagle's Medium (DMEM) with 10% fetal calf serum (FCS) and 1% penicillin-streptomycin solution (10,000U/ml). Cells were plated in 96-well tissue culture plates at a density of 2x10^2 cells per well in a volume of 100μl, and cultured for 96 hours (37°C, 5% CO2) until reaching 30% confluence. The growth medium was removed and replaced with treatment media (DMEM, 1% FCS, 1% penicillin-streptomycin solution, 100μl assay volume) supplemented with vehicle alone (DMSO), test compounds or chlorpromazine, a positive control for cytotoxicity (final concentrations from 0 to 100μM). Maximum vehicle concentration for all compounds was 0.5% DMSO. Cells were cultured with the test compounds for 72 hours before cytotoxicity measurement. Following the WST-8 assay, the medium was removed, cells were washed with 100μl PBS and then 100μl of neutral red medium (DMEM, 1% FBS and 33μg/ml neutral red dye (Sigma Aldrich #N2889) were added to each well, followed by incubation for a further 2 hours. The neutral red medium was removed, cells washed with 100μl of PBS and 100μl of destain solution (50% ethanol, 49% distilled water and 1% glacial acetic acid) were added. Each assay plate was shaken rapidly for 10 minutes before absorbance was measured at 540nm using a microplate reader. This assay measures the ability of living cells to actively take up the neutral red dye. Results were analysed using GraphPad Prism and fitted using a log-logistic model.

[2] = tested on: CMT-93 murine rectal epithelial cells; experiment: WST-8 cytotoxicity assay; type: cell-based, mouse; details: Mus musculus, CMT93; CMT-93 cells, 72 hours, maximum tested concentration 100μM, n = 8, 95% confidence interval in parentheses
Method: CMT-93 murine rectal epithelial cells were maintained in Dulbecco's Modified Eagle's Medium (DMEM) with 10% fetal calf serum (FCS) and 1% penicillin-streptomycin solution (10,000U/ml). Cells were plated in 96-well tissue culture plates at a density of 2x10^2 cells per well in a volume of 100μl, and cultured for 96 hours (37°C, 5% CO2) until reaching 30% confluence. The growth medium was removed and replaced with treatment media (DMEM, 1% FCS, 1% penicillin-streptomycin solution, 100μl assay volume) supplemented with vehicle alone (DMSO), test compounds or chlorpromazine, a positive control for cytotoxicity (final concentrations from 0 to 100μM). Maximum vehicle concentration for all compounds was 0.5% DMSO. Cells were cultured with the test compounds for 72 hours before cytotoxicity measurement. The WST-8 assay was performed using the Cell Counting Kit– 8 (Sigma Aldrich # 96992). 10μl of the CCK-8 solution was added to each well, plates were incubated for a further 2 hours, before absorbance was measured at 450nm using a microplate reader. This assay measures the ability of metabolically active cells to reduce a water-soluble formazan dye. Results were analysed using GraphPad Prism and fitted using a log-logistic model.

adult T. muris = experiment: Ex vivo adult T. muris automated motility assay (primary/secondary screen at 100 μM and dose-response); design: species or system Trichuris muris; details: for EC50: Trichuris muris, values of Fig 5 shown for comparison, read-out: EC50 in adult Trichuris paralysis assay; for PRIMARY_SCREEN_MINUS_LOG_FOLD_CHANGE_MOVEMENT: primary screen; for PRIMARY_SCREEN_MINUS_LOG_FOLD_CHANGE_MOVEMENT / SECONDARY_SCREEN_MINUS_LOG_FOLD_CHANGE_MOVEMENT: adult T. muris motility; for SECONDARY_SCREEN_MINUS_LOG_FOLD_CHANGE_MOVEMENT: secondary screen
Summary of the method: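 Motility scored after 24 h (37 °C, 5% CO2) by automated imaging of pixel intensity variance, one worm per well, four weekly biological replicates. Worms came from SCID mice infected orally with 200 eggs, harvested day 35; screening at 100 μM final in RPMI-1640/antibiotics, 1% DMSO; curves fitted with four-parameter log-logistic model.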

[3] = tested on: embryonated T. muris eggs; experiment: In vivo establishment of infection by compound-treated embryonated eggs; design: species or system Trichuris muris; details: eggs soaked 14 days at 100μM
Method: 100 infective embryonated eggs were incubated with water, water plus DMSO vehicle, or test compounds at a final concentration of 100μM for 14 days at room temperature. Eggs were then washed, re-suspended in water and 30 eggs given to a mouse via oral gavage. At day 15 post-infection, mice were culled and the number of worms present in the caecae and colon was counted. One data point was excluded: a water control individual mouse where there were technical difficulties with the oral gavage leading to the mouse regurgitating some of the T. muris eggs. It was ear marked at day of gavage and removed from the analysis.
We collected data using the same experimental design on different occasions, these are referred to as batches. Data were obtained from three batches (DMSO and water controls, batches [A,B,C]) or two batches (OX02983 [A,C], OX03153 [B,C]) with the total number of mice used, n, as follows: DMSO: 14, water: 16, OX02983: 10, OX03153: 12. The data were analysed by 2-way ANOVA (worms ~ treatment + batch + treatment * batch). There was no significant interaction effect (P = 0.14) or effect of batch (P = 0.47). We therefore combined the data from the three batches. […] We then conducted a post-hoc test using Tukey’s honest significant difference test.

[4] = combined primary and secondary screen minus log fold change in movement, adult T. muris, 100 μM
[5] = adult T. muris motility screen at 100 μM, combines primary and secondary screen minus log fold change in movement (mean where both are given)

SMILES	COMBINED_SCREEN_ACTIVITY (adult T. muris; [4])	PRIMARY_SCREEN_MINUS_LOG_FOLD_CHANGE_MOVEMENT (adult T. muris; 100 μM)	other results
Cc1ccc(CN2C(=O)COCc3cc(Br)ccc32)cc1 [OX03146, 7-Bromo-1-(4-methylbenzyl)-1,5-dihydrobenzo[e][1,4]oxazepin-2(3H)-one]	–	–	EC50 [1]: 47 µM; EC50 [2]: 63 µM; EC50 (adult T. muris): 35 µM
O=C1COCc2cc(-c3cccnc3)ccc2N1Cc1ccc(C(F)(F)F)cc1 [OX03144, 7-(Pyridin-3-yl)-1-(4-(trifluoromethyl)benzyl)-1,5-dihydrobenzo[e][1,4]oxazepin-2(3H)-one]	–	–	EC50 [1]: 60 µM; EC50 [2]: > 100 µM; EC50 (adult T. muris): 26 µM
O=C1COCc2cc(-c3cccnc3)ccc2N1CC1CCCCC1 [OX02993, 1-(Cyclohexylmethyl)-7-(pyridin-3-yl)-1,5-dihydrobenzo[e][1,4]oxazepin-2(3H)-one]	–	–	EC50 [1]: > 100 µM; EC50 [2]: > 100 µM; EC50 (adult T. muris): 52 µM
Cc1ccc(CN2C(=O)COCc3cc(-c4ccncc4)ccc32)cc1 [OX02983, 1-(4-Methylbenzyl)-7-(pyridin-4-yl)-1,5-dihydrobenzo[e][1,4]oxazepin-2(3H)-one]	–	–	EC50 [1]: > 100 µM; EC50 [2]: > 100 µM; Median worms establishing infection ([3]; 30 eggs by oral gavage, day 15 post-infection): 5.5 worms; Reduction of infectivity in vivo of treated embryonated eggs ([3]; washed, 30 eggs by oral gavage to mice, worms counted day 15, versus DMSO control): ~54%; EC50 (adult T. muris): 50 µM
CN(C)CCCN1c2ccccc2Sc2ccc(Cl)cc21 [Chlorpromazine, reference compound]	–	–	EC50 [1]: 10 µM; EC50 [2]: 9 µM
COc1ccc(F)cc1-c1ccc2c(c1)N(Cc1ccccc1)C(=O)COC2 [Compound 129]	3.716	3.716	–
COc1ccc(-c2ccc3c(c2)N(Cc2cc(F)cc(F)c2)C(=O)COC3)cn1 [Compound 156]	-1.039	-1.039	–
O=C1COCc2ccc(-c3cnc4ccccc4c3)cc2N1CCN1CCOCC1 [Compound 173]	0.2312	0.2312	–
N#Cc1cccc(-c2ccc3c(c2)N(Cc2ccccc2)C(=O)COC3)c1 [Compound 89]	0.3109	0.3109	–
O=C1COCc2ccc(-c3cccnc3)cc2N1CCN1CCOCC1 [Compound 86]	-1.564	-1.564	–
COc1cc(F)ccc1-c1ccc2c(c1)COCC(=O)N2CCc1ccccc1 [Compound 144]	-1.769	-1.769	–
O=C1COCc2ccc(-c3ccc(F)c(Cl)c3)cc2N1CCN1CCOCC1 [Compound 175]	0.9531	0.9531	–
CC(C)N1C(=O)COCc2ccc(-c3cc(F)cc(F)c3)cc21 [Compound 39]	3.736	3.736	–
Cc1ccc(CN2C(=O)COCc3cc(-c4cccc(C#N)c4)ccc32)cc1 [Compound 115]	-2.656	-2.656	–
Cc1ccc(CN2C(=O)COCc3cc(-c4cnn(C)c4)ccc32)cc1 [Compound 82]	0.6432	0.6432	–
COc1cc(F)ccc1-c1cccc2c1COCC(=O)N2C [Compound 32]	-1.894	-1.894	–
COCCN1C(=O)COCc2ccc(-c3cc(F)cc(F)c3)cc21 [Compound 56]	-1.686	-1.686	–
CC(=O)Nc1cccc(-c2ccc3c(c2)N(Cc2cc(F)cc(F)c2)C(=O)COC3)c1 [Compound 185]	–	10.5493	COMBINED_SCREEN_ACTIVITY (adult T. muris; [5]): 6.728; SECONDARY_SCREEN_MINUS_LOG_FOLD_CHANGE_MOVEMENT (adult T. muris; 100 μM): 2.906

SMILES	COMBINED_SCREEN_ACTIVITY (adult T. muris; [4])	PRIMARY_SCREEN_MINUS_LOG_FOLD_CHANGE_MOVEMENT (adult T. muris; 100 μM)	other results
COc1ccccc1-c1ccc2c(c1)N(Cc1ccccc1)C(=O)COC2 [Compound 96]	-0.4906	-0.4906	–
O=C(O)c1cccc(-c2ccc3c(c2)N(Cc2cc(F)cc(F)c2)C(=O)COC3)c1 [Compound 178]	-2.449	-2.449	–
O=C1COCc2cc(-c3cccnc3)ccc2N1Cc1ccc2c(c1)OCO2 [Compound 125]	-0.9605	-0.9605	–
CN1C(=O)COCc2c(-c3cccc(O)c3)cccc21 [Compound 9]	-1.134	-1.134	–
O=C1COCc2ccc(-c3ccncc3)cc2N1CC1CCCCC1 [Compound 60]	7.742	7.742	–
COc1cc(F)ccc1-c1ccc2c(c1)N(CC1CC1)C(=O)COC2 [Compound 70]	11.6216	10.6243	SECONDARY_SCREEN_MINUS_LOG_FOLD_CHANGE_MOVEMENT (adult T. muris; 100 μM): 12.6188
COCc1cccc(-c2ccc3c(c2)COCC(=O)N3Cc2cccc(OC)c2)c1 [Compound 170]	-0.3892	-0.3892	–
Cc1ccccc1-c1cccc2c1COCC(=O)N2C [Compound 8]	-0.9498	-0.9498	–
COCCN1C(=O)COCc2ccc(-c3cc(F)cc(Cl)c3)cc21 [Compound 84]	0.4605	0.4605	–
COc1ccc(-c2ccc3c(c2)N(Cc2ccccc2)C(=O)COC3)cn1 [Compound 102]	0.7062	0.7062	–
CN1C(=O)COCc2c(-c3ccc(F)c(Cl)c3)cccc21 [Compound 33]	1.432	1.432	–
COc1ccccc1-c1ccc2c(c1)N(CC1CC1)C(=O)COC2 [Compound 42]	1.209	1.209	–
O=C1COCc2cc(-c3cccnc3)ccc2N1CCc1ccccc1 [Compound 73]	3.006	3.006	–
CN1C(=O)COCc2cc(-c3cccc(C#N)c3)ccc21 [Compound 10]	-1.704	-1.704	–
CCN(CC)C(=O)c1cccc(-c2ccc3c(c2)N(Cc2ccccc2C)C(=O)COC3)c1 [Compound 191]	–	10.7743	COMBINED_SCREEN_ACTIVITY (adult T. muris; [5]): 10.9041; SECONDARY_SCREEN_MINUS_LOG_FOLD_CHANGE_MOVEMENT (adult T. muris; 100 μM): 11.0339
O=C1COCc2ccccc2N1Cc1cc(F)cc(F)c1 [Compound 23]	-1.442	-1.442	–
O=C1COCc2ccc(-c3cc(F)cc(Cl)c3)cc2N1CCN1CCOCC1 [Compound 176]	-1.404	-1.404	–
